Experimental data reported in publication PMC10938783, “A novel pan-PI3K inhibitor KTC1101 synergizes with anti-PD-1 therapy by targeting tumor suppression and immune activation” (Molecular Cancer, 2024).

Tests used:
[1] = target: PI3Kβ (PIK3CB/PIK3R1) (Homo sapiens, UniProt P42338); test: Adapta kinase assay; format: biochemical
Procedure: (§1) Procedures for the preparation of KTC1101 are described in supplemental data. To investigate the PI3K inhibitory efficacy of KTC1101, its impact on the kinase activity of PI3K isoforms was assessed using the Adapta kinase assay as previously reported. Initially, a dilution series of 2.5 µL KTC1101 or DMSO (control) was prepared and added to the respective wells of a 384-well plate. Subsequently, optimized 2.5 µL kinase solutions, including PIK3CA/PIK3R1, PIK3CB/PIK3R1, PIK3CG, and PIK3CD/PIK3R1, were introduced to each well. After adding the kinase solutions, 5 µL ATP and PIP2:PS lipid kinase substrate was introduced into each well and incubated for 1 h at room temperature. This step allows for the initiation and progression of the kinase reaction. Following the incubation, a detection solution (5 µL) was added to all the wells. This solution contained 30 mM EDTA to stop the kinase reaction, 6 nM Eu-labeled anti-ADP antibody, and a 3 × concentration of Alexa Fluor® 647 ADP tracer. The EDTA effectively terminates the kinase reaction, while the anti-ADP antibody and ADP tracer are crucial for the detection of ADP produced during the kinase reaction, which correlates with PI3K activity. The plate was then allowed to equilibrate for 30 min at room temperature, ensuring proper binding of the tracer and antibody to the generated ADP. Finally, the fluorescence of each well was measured using a Multi-Mode Microplate Reader (Spark, Tecan). To ascertain the selectivity of KTC1101 for PI3K isoforms and to rule out off-target effects, a kinase panel comprising 50 kinases was tested against KTC1101. This kinase profiling was conducted by Wuhan Heyan Biomedical Technology Co., Ltd.

[2] = target: PI3Kδ (PIK3CD/PIK3R1) (Homo sapiens, UniProt O00329); test: Adapta kinase assay; format: biochemical
PI3Kδ (PIK3CD/PIK3R1), sequence (O00329 whole entry): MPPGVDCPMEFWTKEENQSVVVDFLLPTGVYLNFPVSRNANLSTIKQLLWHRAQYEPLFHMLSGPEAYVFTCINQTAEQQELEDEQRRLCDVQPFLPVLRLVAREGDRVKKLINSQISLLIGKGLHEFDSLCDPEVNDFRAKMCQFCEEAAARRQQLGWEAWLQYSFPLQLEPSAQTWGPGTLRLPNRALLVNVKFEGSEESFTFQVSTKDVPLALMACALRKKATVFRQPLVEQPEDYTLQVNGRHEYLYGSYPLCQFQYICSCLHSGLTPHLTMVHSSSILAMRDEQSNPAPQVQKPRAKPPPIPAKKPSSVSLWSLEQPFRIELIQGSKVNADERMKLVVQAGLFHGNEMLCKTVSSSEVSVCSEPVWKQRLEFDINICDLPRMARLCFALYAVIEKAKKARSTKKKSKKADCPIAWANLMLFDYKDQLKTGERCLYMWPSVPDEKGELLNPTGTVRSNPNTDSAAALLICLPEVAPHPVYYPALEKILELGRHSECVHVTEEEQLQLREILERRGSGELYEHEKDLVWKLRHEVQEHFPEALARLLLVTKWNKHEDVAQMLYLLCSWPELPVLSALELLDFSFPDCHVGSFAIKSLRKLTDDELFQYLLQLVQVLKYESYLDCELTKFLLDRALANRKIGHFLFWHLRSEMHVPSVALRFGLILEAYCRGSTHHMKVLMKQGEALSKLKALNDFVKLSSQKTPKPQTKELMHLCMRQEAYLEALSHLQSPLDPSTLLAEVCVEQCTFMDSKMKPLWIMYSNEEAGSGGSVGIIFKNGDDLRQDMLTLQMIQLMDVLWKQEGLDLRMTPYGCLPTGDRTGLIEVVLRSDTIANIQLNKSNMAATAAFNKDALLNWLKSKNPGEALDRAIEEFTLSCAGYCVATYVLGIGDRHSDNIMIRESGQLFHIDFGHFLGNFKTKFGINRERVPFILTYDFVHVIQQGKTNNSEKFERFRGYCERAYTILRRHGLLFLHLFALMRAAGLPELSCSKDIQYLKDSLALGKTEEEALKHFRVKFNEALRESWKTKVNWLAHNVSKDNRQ
PI3Kδ (PIK3CD/PIK3R1), sequence (P27986 whole entry partner): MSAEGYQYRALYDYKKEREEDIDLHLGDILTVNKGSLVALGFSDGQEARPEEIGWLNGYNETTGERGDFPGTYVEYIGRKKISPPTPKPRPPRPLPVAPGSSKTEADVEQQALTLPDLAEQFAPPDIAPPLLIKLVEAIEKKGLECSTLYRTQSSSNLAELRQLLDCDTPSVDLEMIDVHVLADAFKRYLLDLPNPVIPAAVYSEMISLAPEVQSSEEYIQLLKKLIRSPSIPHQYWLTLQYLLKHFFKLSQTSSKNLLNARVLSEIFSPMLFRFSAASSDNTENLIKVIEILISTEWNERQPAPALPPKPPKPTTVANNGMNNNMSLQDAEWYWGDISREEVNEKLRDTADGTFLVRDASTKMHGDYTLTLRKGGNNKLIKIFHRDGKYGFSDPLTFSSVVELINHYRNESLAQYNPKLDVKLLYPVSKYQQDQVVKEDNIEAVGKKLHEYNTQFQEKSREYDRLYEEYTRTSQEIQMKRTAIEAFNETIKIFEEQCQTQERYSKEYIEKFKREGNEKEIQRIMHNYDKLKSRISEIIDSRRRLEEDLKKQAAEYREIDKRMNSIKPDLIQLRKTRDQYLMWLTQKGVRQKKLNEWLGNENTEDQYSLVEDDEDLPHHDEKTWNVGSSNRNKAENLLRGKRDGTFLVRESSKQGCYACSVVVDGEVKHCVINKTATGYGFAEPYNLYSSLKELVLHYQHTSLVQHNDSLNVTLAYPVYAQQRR
Procedure: as §1

[3] = target: PI3Kγ (PIK3CG) (Homo sapiens, UniProt P48736); test: Adapta kinase assay; format: biochemical
PI3Kγ (PIK3CG), sequence (P48736 whole entry): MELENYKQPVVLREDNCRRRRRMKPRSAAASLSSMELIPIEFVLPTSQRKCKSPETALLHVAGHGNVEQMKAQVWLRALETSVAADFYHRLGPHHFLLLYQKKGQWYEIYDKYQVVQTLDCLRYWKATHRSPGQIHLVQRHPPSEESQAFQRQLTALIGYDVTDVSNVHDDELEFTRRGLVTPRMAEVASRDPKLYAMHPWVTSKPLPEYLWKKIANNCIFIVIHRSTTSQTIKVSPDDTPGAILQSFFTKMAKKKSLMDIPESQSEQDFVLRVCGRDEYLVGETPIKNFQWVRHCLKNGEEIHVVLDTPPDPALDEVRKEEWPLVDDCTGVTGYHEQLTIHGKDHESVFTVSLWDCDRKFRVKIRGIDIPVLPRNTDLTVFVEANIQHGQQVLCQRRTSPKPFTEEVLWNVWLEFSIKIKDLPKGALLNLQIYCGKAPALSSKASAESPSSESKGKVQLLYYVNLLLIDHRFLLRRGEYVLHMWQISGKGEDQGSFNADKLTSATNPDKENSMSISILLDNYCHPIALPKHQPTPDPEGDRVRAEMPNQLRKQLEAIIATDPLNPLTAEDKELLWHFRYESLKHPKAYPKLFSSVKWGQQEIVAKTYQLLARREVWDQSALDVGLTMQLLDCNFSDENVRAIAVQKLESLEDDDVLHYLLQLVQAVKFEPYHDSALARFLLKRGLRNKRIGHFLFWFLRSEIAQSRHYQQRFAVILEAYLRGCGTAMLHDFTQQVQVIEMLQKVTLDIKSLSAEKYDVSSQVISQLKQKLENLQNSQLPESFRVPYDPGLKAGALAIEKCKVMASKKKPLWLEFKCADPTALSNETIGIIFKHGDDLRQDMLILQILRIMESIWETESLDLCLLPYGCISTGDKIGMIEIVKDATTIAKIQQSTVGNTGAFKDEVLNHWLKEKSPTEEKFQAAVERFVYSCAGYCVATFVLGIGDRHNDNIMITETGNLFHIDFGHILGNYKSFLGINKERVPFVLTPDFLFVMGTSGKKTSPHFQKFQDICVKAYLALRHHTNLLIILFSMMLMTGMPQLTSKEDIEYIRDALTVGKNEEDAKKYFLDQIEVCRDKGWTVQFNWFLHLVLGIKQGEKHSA
Procedure: as §1

[4] = target: PI3Kα (PIK3CA/PIK3R1) (Homo sapiens, UniProt P42336); test: Adapta kinase assay; format: biochemical
PI3Kα (PIK3CA/PIK3R1), sequence (P42336 whole entry): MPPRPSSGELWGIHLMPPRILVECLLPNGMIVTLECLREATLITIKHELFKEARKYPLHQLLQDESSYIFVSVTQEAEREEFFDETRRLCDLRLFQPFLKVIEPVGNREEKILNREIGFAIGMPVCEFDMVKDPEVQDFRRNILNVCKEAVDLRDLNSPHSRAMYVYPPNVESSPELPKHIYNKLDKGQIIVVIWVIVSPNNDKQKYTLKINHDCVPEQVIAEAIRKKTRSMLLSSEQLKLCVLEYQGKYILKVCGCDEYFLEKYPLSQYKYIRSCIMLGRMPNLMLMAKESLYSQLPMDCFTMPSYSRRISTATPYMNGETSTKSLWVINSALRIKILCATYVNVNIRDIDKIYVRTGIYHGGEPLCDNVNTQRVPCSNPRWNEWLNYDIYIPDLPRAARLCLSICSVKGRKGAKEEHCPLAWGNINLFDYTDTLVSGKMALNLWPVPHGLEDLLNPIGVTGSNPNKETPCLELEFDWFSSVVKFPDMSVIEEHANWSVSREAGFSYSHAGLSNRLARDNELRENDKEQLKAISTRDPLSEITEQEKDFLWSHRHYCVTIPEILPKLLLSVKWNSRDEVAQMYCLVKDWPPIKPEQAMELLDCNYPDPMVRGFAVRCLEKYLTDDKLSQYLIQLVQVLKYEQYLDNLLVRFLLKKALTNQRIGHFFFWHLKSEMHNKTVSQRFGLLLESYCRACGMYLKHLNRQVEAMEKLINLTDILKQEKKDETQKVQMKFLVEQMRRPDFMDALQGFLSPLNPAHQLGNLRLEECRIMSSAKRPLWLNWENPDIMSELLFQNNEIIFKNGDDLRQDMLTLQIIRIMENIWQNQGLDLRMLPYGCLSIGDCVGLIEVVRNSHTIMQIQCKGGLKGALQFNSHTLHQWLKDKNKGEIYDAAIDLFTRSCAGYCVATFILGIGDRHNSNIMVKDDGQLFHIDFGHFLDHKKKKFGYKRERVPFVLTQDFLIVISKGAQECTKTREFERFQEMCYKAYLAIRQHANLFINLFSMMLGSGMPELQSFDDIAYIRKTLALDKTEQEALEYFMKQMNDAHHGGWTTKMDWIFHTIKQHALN
PI3Kα (PIK3CA/PIK3R1), sequence (P27986 whole entry partner): as the sequence (P27986 whole entry partner) above
Procedure: as §1

[5] = Pharmacokinetic study of oral administration; format: in vivo; conditions: mouse, blood, BALB/c male mice, 100 mg/kg p.o.
Procedure: Chromatographic conditions employed a Waters BEH C18 column (2.1 mm × 50.0 mm, 1.7 µm) with a mobile phase comprising acetonitrile with 0.1% formic acid (A) and water with 0.1% formic acid (B), at a flow rate of 0.4 mL/min and a column temperature of 40°C. Gradient elution was used: 0–0.3 min, 20:80 → 20:80 (A:B); 0.3–2.5 min, 20:80 → 60:40 (A:B); 2.5–3.0 min, 60:40 → 100:0 (A:B); 3.0–3.01 min, 100:0 → 20:80 (A:B); 3.01–3.5 min, 20:80 → 20:80 (A:B). Mass spectrometry was performed using electrospray ionization (ESI) in positive ion mode, with a capillary voltage of 1 kV, a desolvation temperature of 450 °C, and a desolvation gas flow of 800 L/h. KTC1101 and internal standard phenacetin parameters were optimized for ionization and collision energies.
KTC1101 was prepared at 1 mg/mL concentration in acetonitrile, and further diluted to create a series of standard solutions. Blood samples were taken from BALB/c male mice (19 ± 2g) at various time points post-oral administration of KTC1101 (100 mg/kg). Samples were processed and analyzed using HPLC coupled with mass spectrometry. Data were calculated using Masslynx 4.1 and DAS 3.0 software.

[6] = Plasma metabolic stability assay; format: in vitro ADME; conditions: mouse plasma, 37°C, 120 min incubation
Procedure: 495 µL of plasma was placed in a 96-well plate and pre-incubated at 37°C for 5 min.

[7] = test system: immune cell populations in B16 tumors; test: Flow cytometry of tumor-infiltrating immune cells; format: in vivo, mouse; conditions: intermittent dosing
Procedure: To obtain single-cell suspensions for analysis by flow cytometry, tumors were excised, minced, and dissociated in Deoxyribonuclease/collagenase/hyaluronidase buffer (0.1 mg/mL Deoxyribonuclease I, 0.2 mg/mL Collagenase IV and 0.2 mg/mL Hyaluronidase) for 60 min at 37 °C with agitation, and strained through a 70 μm strainer for downstream applications. Tissue was dissociated as described above to obtain single-cell suspensions. Cells were stained with antibodies for 30 min at 4 °C, and then fixed and intracellularly stained using Foxp3/ Transcription Factor Staining Buffer Set (eBioscience) according to the manufacturer’s instructions. Antibodies used in this study can be found in Supplementary Table 2. The stained cells were acquired on a BD C6 Flow Cytometer using BD AccuriTM C6 Software (BD Biosciences) and the data were processed using FlowJo software.

[8] = test system: S24 tumors; test: S24 tumors in NSG mice; format: in vivo, mouse; conditions: 100 mg/kg daily oral gavage
Procedure: BALB/c nude, NSG, and C57BL/6J mice were obtained from Tianjin Medical University. The housing temperature was controlled, ranging from 20.5–24 °C, and humidity was monitored but not controlled ranging from 30–70%. The 12-h daily light cycle was from 06:00 to 18:00. To generate a murine subcutaneous tumor model, PC3 and HSC2 cells were subcutaneously injected into the right lateral flank of 4- to 5-week-old male BALB/c nude mice. TMD8, CAL33, and S24 cells were subcutaneously injected into the right lateral flank of 4- to 5-week-old male NSG mice. When tumors reached a volume of 300–500 mm^3, they were excised, diced into 2 mm × 2 mm × 2 mm pieces, and implanted into the right flanks of BALB/c nude or NSG mice. Tumors were allowed to grow to a volume of 100 mm^3, and then the animals were randomly divided into several groups. Each group of five mice was treated with either vehicle or KTC1101 (25, 50, or 100 mg/kg, PO). Tumor size was measured every 3 d or 4 d until the endpoint. The tumor volume was calculated using the following formula: length × width × height/2. At the end of the experimental period, mice were euthanized by overdosing on pentobarbital sodium, and the tumors were removed. Tumor tissue was formalin-fixed and paraffin-embedded for histological analysis.

[9] = test system: B16 tumor tissue gene expression; test: RNA-Seq (DEGs, GSEA, GSVA, CIBERSORT) of B16 tumors after KTC1101; format: in vivo, mouse; conditions: 100 mg/kg for 3 days
Text: Total RNA was isolated using TRIzol reagent.
Cell-type Identification by Estimating Relative Subsets of RNA Transcripts (CIBERSORT) was used to perform a deconvolution analysis of the gene expression matrix based on the principle of linear […]. The CIBERSORT algorithm, with a reference to 511 mouse gene signatures, categorized immune cell populations into seven groups and calculated composition scores: B cells including memory, naive, and plasma cells; CD8^+ T cells including memory, naive, and activated cells; CD4^+ T cells including memory, naive, follicular, Th1, Th2, and Th17 cells; DCs including activated and immature cells; the rest being mast cells, Tregs, and monocytes.

PI3Kβ (PIK3CB/PIK3R1), sequence (P42338 whole entry, canonical isoform): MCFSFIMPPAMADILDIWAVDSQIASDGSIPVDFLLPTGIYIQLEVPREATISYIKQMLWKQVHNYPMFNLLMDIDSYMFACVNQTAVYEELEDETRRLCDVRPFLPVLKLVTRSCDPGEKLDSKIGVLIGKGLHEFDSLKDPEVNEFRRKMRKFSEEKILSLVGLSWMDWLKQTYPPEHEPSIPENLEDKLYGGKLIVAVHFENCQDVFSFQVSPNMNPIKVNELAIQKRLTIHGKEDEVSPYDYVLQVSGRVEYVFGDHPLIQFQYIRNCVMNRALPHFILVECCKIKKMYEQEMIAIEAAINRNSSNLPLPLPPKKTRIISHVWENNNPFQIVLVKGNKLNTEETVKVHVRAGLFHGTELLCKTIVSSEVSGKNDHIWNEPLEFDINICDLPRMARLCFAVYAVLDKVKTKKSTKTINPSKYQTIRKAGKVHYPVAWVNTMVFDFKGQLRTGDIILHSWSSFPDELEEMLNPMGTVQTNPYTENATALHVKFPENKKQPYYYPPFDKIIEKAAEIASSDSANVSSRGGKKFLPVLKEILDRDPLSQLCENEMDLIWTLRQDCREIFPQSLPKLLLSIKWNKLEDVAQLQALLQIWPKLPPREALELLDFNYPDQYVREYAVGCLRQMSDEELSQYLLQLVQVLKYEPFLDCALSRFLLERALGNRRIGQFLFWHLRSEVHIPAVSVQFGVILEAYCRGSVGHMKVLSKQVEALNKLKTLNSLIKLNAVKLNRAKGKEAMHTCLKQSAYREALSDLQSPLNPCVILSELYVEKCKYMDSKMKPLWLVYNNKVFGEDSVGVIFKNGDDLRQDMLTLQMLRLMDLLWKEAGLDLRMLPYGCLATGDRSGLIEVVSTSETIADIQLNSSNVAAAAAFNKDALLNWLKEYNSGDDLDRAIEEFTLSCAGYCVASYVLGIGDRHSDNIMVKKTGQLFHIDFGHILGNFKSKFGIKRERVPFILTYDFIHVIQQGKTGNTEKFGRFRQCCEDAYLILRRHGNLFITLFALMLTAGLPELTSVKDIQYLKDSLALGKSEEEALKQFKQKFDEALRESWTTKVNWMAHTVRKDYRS
PI3Kβ (PIK3CB/PIK3R1), sequence (P27986 whole entry partner, canonical isoform): as the sequence (P27986 whole entry partner) above

Which IC50 [1] does the source give for COc1cc(N)cc2c1nc(C(F)F)n2-c1nc(N2CCCOCC2)nc(N2CCOCC2)n1 [KTC1101, 2-(difluoromethyl)-4-methoxy-1-(4-morpholino-6-(1,4-oxazepan-4-yl)-1,3,5-triazin-2-yl)-1H-benzo[d]imidazol-6-amine] here?
The IC50 was 36.3 nM.

What about the IC50 [2] of the same compound?
The IC50 was 1.22 nM.

And the IC50 [3]?
The IC50 was 17.1 nM.

What about the IC50 [4] of the same compound?
The IC50 was 3.72 nM.

What about the AUC(0-t) [5] of the same compound?
The AUC(0-t) was 9330 ng·h/mL.

What about the Cmax [5] of the same compound?
Its Cmax is 1660 ng/mL.

And the Tmax [5]?
The Tmax was 0.67 h.

And the half-life [5]?
The half-life was 7.19 ± 4.07 h.

And the CL/F ([5]; read-out: CLz/F (converted))?
The CL/F was 179 mL/min/kg.

And the Vd/F ([5]; read-out: Vz/F)?
The Vd/F was 118 ± 85.5 L/kg.

And the half-life at 1 µM [6]?
The half-life at 1 µM was > 2 h.

And the “intratumoral T cell populations (FACS)” value [7]?
Its value is “increase in intratumoral CD8^+ T, CD4^+ T, and a reduction of Treg cells”.

What about the “time until tumors started to progress” value [8] of the same compound?
The value was 10 days.

And the “immune-related pathways (GSEA, GSVA)” value [9]?
The value was “prominently upregulated”.
